Measurements as given in PubChem BioAssay (NCI).
“And” between values parts separate entries of the source, which are not always exact repeats. Equal values may be shown once.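 Test compounds were applied to cells in 96-well plates for 48 hours at 5 doses. At the TGI there is no net growth.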

Legend:
Test in all cases: NCI tumour cell line growth inhibition, 48 h
[1] = system: LOX IMVI melanoma
[2] = system: HT29 colon
[3] = system: A498 renal
[4] = system: MOLT-4 leukemia
[5] = system: HCC-2998 colon
[6] = system: SF-539 CNS
[7] = system: 786-0 renal
[8] = system: T-47D breast
[9] = system: MDA-MB-231 breast
[10] = system: U251 CNS
[11] = system: OVCAR-5 ovarian
[12] = system: OVCAR-4 ovarian
[13] = system: KM20L2 colon
[14] = system: NCI-H226 lung
[15] = system: TK-10 renal
[16] = system: COLO 205 colon
[17] = system: CAKI-1 renal
[18] = system: NCI-H23 lung
[19] = system: MALME-3M melanoma
[20] = system: HS 578T breast

Structure (SMILES)	TGI [1]	TGI [2]	TGI [3]	TGI [4]	TGI [5]	TGI [6]	TGI [7]	TGI [8]	TGI [9]	TGI [10]	TGI [11]	TGI [12]	TGI [13]	TGI [14]	TGI [15]	TGI [16]	TGI [17]	TGI [18]	TGI [19]	TGI [20]
COc1ccc(/C=C2/C(=O)N(C(=O)c3ccccc3O)N=C2C)cc1	> 46.6 µM	> 100 µM	0.0747 µM	> 100 µM	> 100 µM	2.2 µM	> 100 µM	> 100 µM	> 100 µM	> 100 µM	> 100 µM	> 100 µM	> 100 µM	32.3 µM	> 100 µM	> 89.2 µM	51 µM			
CCOP(=O)(OCC)/C(C#N)=C/c1ccccn1	> 100 µM	> 100 µM	> 100 µM	> 100 µM	> 100 µM	> 100 µM	> 100 µM	> 100 µM	> 100 µM	> 100 µM	> 100 µM	> 100 µM		> 100 µM	> 100 µM	> 100 µM	> 100 µM	> 100 µM	> 100 µM	> 100 µM
O=C(Cn1cc(Br)c(=O)[nH]c1=O)c1ccc(-c2ccccc2)cc1	> 27.4 µM	> 100 µM	> 100 µM	> 27.5 µM	> 28.7 µM	> 19.8 µM	> 100 µM	> 100 µM	> 52 µM	62.5 µM	> 27.5 µM	> 100 µM		> 100 µM	> 100 µM	> 49.6 µM	> 41.8 µM	> 27.5 µM	> 100 µM	> 100 µM
CC1(C)OC(=S)N(c2ccccc2)C12C=Cc1cc3ccccc3nc1S2 (configuration not stated)	> 100 µM	> 100 µM		> 100 µM	> 100 µM	> 100 µM	> 100 µM			> 100 µM	> 100 µM		> 100 µM	> 100 µM	> 100 µM	> 100 µM		> 100 µM	> 100 µM	
Cc1ccc(-c2c(-c3ccccc3)[nH]c(C)c2C(=O)ONC(=O)c2ccccc2)cc1	4.45 µM	> 42.4 µM	25.5 µM	7.73 µM	28.9 µM	8.06 µM	12.6 µM	19.9 µM	12.8 µM	4.07 µM	32.3 µM	9.48 µM		19.1 µM	18.2 µM	25.7 µM	5.48 µM	17.4 µM	24.7 µM	5.39 µM
N#Cc1c2ccc([N+](=O)[O-])cc2c(=O)n2c1[nH]c1ccc(C(F)(F)F)cc12	45.6 µM	> 47.4 µM	> 48.8 µM	> 100 µM	> 100 µM	> 100 µM	> 100 µM	> 100 µM	> 77.8 µM	> 100 µM	> 100 µM	> 100 µM		> 88.3 µM	> 100 µM	> 46.3 µM	> 100 µM	65.3 µM	> 100 µM	> 100 µM
COc1cc(C2c3cc4c(cc3OC(NNS(=O)(=O)c3ccc(C)cc3)C2C)OCO4)cc(OC)c1OC (configuration not stated)	> 100 µM	5.38 µM	5.69 µM	> 100 µM	> 23.4 µM	3.96 µM	31.5 µM	> 100 µM	> 64.1 µM	13.4 µM	> 100 µM	48.4 µM		13.2 µM	> 79 µM	16.8 µM	23.9 µM	> 74.6 µM	> 60.8 µM	15.2 µM
CCC(C)C(N)C(=O)N/N=C\c1c2c(nc3ccccc13)-c1cc3c(c(=O)n1C2)COC(=O)[C@]3(O)CC (some centres not stated)	1.08 µM	> 100 µM	1.43 µM	1.86 µM	15.2 µM	0.0223 µM	1.12 µM	0.188 µM	> 82.2 µM	0.669 µM	> 43.5 µM	52.6 µM		1.66 µM	> 100 µM	> 51.6 µM	65.5 µM	0.401 µM	19.7 µM	> 100 µM
O=C(/C=C1\Sc2ccccc2N=C1CC(=O)c1ccccc1)c1ccccc1	21.2 µM	23.6 µM	> 100 µM	24.7 µM	26.2 µM	34.7 µM	21.7 µM	75.5 µM	41.8 µM	18.2 µM	61.4 µM	40.3 µM		35.5 µM	45.2 µM	22.3 µM	34.1 µM	> 100 µM	23 µM	> 100 µM
NC(=O)CSc1c2cc(O)ccc2nc2ccc(O)cc12	> 10 µM	> 10 µM	> 10 µM	> 10 µM	> 10 µM	> 10 µM	> 10 µM	> 10 µM	> 10 µM	> 10 µM	> 10 µM	> 10 µM		> 10 µM	> 10 µM	> 10 µM	> 10 µM	> 10 µM	> 10 µM	> 10 µM
O=C(c1ccccc1)N1C(=O)N(c2ccccc2)C(=Nc2ccccc2)C1=Nc1ccccc1	> 100 µM	> 100 µM	> 100 µM	> 100 µM	> 100 µM	> 100 µM	> 100 µM	> 100 µM	> 100 µM	> 100 µM	> 100 µM	> 100 µM		> 100 µM	> 100 µM	> 100 µM	> 100 µM	> 100 µM	> 100 µM	> 100 µM
COc1cc(C(=O)Oc2c(C(C)=O)sc3c2c(=O)n(-c2ccccc2)c(=S)n3-c2ccccc2)cc(OC)c1OC	40.1 µM	32.8 µM	28.3 µM	50.5 µM	55.6 µM	32.5 µM	55.2 µM	99.6 µM	88.8 µM	77.8 µM	43.2 µM	64.2 µM		25.9 µM	> 100 µM	30.6 µM	76.5 µM	39.9 µM	27.8 µM	74.4 µM
CC12CCCCC1=C(F)C(F)(F)S2 (configuration not stated)	82.6 µM	56.5 µM	> 100 µM	36 µM	> 86.5 µM	> 100 µM	45.9 µM	74.5 µM	> 100 µM	> 100 µM	97.7 µM	> 100 µM		> 100 µM	69.9 µM	40.2 µM	48.9 µM	> 100 µM	58.6 µM	> 80.7 µM
COc1cc(/C=C2\C[C@H]3[C@@H]4CCC5=CC(=O)CC[C@]5(C)[C@H]4CC[C@]3(C)C2=O)cc(OC)c1OC	> 100 µM	> 100 µM	> 100 µM	> 100 µM	> 100 µM	> 100 µM	> 100 µM	9.09 µM	> 100 µM	> 100 µM	> 100 µM	> 59.7 µM		> 100 µM	> 100 µM	> 60.6 µM	> 65.2 µM	> 100 µM	> 100 µM	> 100 µM
CC(=O)C(C(=O)c1ccc(C)cc1)[C@H]1OC(C)(C)O[C@H]1[C@H]1COC(C)(C)O1 (some centres not stated)	8.16 µM	9.35 µM	14.7 µM	> 50 µM	14.2 µM	6.3 µM	8.75 µM	18.9 µM	13.6 µM	7 µM	18.3 µM	9.37 µM		29.2 µM	14.5 µM	18.7 µM	12.8 µM	10 µM	18.4 µM	> 50 µM
N#CC1=C(N)N(/N=C/c2ccccc2)C(c2ccccc2)C1(C#N)C#N (configuration not stated)	14.6 µM	15.7 µM	29.3 µM	5.5 µM	34.9 µM	33.9 µM	16.1 µM	24.4 µM	31.4 µM	32.6 µM	39.4 µM	28.5 µM		37.2 µM	16.7 µM	4.82 µM	13 µM	33.5 µM	4.39 µM	66.7 µM
Clc1ccc2c(NCCCCN3OC3c3ccccc3)ccnc2c1 (configuration not stated)	5.67 µM	10.9 µM	12.3 µM	9.3 µM	11.1 µM	3.63 µM	6.67 µM	16.9 µM	5.92 µM	9.13 µM	29.8 µM	12 µM		37.6 µM	22 µM	7.12 µM	21.8 µM	35.2 µM	16 µM	35.9 µM
O=c1[nH]nc(-c2ccccc2)n1/N=C/c1ccccc1O	> 100 µM	> 100 µM	> 100 µM	> 100 µM	> 100 µM	> 100 µM	> 100 µM	> 100 µM	> 100 µM	> 100 µM	> 100 µM	> 100 µM		> 100 µM	> 100 µM	> 100 µM	> 100 µM	> 100 µM	> 100 µM	96.2 µM
Cn1c(=Nc2ccc(Cl)cc2)sc2ccccc21	> 100 µM	> 100 µM	> 100 µM	> 100 µM	68.3 µM	> 100 µM	> 100 µM	> 100 µM	> 100 µM	> 100 µM	> 100 µM	> 100 µM		> 100 µM	98.1 µM	81.3 µM	> 100 µM	> 100 µM	> 100 µM	> 100 µM
COC(=O)c1c(CC(Cc2ccc3c(c2)CCCC3)C(=O)O)ccc2c1CCCC2 (configuration not stated)	31.4 µM	> 100 µM	76.3 µM	> 100 µM	70.2 µM	44.9 µM	> 100 µM	> 100 µM	> 100 µM	> 100 µM	> 100 µM	> 100 µM		> 100 µM	> 100 µM	32.9 µM	> 100 µM	> 100 µM	> 100 µM	79.4 µM
N#Cc1c(Cl)c2cccnc2n2c1nc1ccccc12	3.51 µM	3.61 µM	31.1 µM	6.15 µM	10.7 µM	5.4 µM	3.27 µM	4.79 µM	5.38 µM	10.3 µM	44.8 µM	5.29 µM		9.58 µM	3.09 µM	4.02 µM	3.71 µM	4.28 µM	3.28 µM	10.5 µM
CC(Oc1ccc(Oc2cnc3ccc(Cl)cc3n2)cc1)C(=O)O (configuration not stated)	> 100 µM	> 100 µM	> 100 µM	> 100 µM	> 100 µM	> 100 µM	> 100 µM	> 100 µM	> 100 µM	> 100 µM	> 100 µM	> 100 µM	> 100 µM	> 100 µM and 33.2 µM	> 100 µM	> 100 µM	> 100 µM	> 100 µM	> 100 µM	> 100 µM
